Test results taken from publication PMC12457078, “Inhibition of soluble epoxide hydrolase in endotoxin induced pig lung injury” (Frontiers in Pharmacology, 2025).
Values joined by “and” are separate entries in the source; they are usually repeats but may differ in a detail not shown here. Equal values may be shown once. “Also recorded” adds a separate entry of the source.

Tested on: endotoxin-induced lung injury
Experiment: porcine model of LPS-induced acute lung injury: haemodynamics, ventilation/mechanics, blood gases, P/F, chemistry, temperature, survival
Format: in vivo, pig
Set-up: AF baseline / AF end / Ven. sat end: unit not given here; PaO2 3 h / PaO2 6 h: unit: kPa
Procedure: The animals were bred for purpose at the Forslunda Agricultural School in Umeå, Sweden. The pigs were pairwise kept in 8 m^2 pens before start of experiments and were fed twice daily with a commercially available pig diet without antimicrobials, and with free access to water. Photoperiods were 12:12 h light:dark. Room temperature in their stall was 20 °C ± 1 °C.
After overnight fasting, but with free access to water and hay, animals were pre-medicated with ketamine (Ketaminol vet® 100 mg/mL; Intervet International B.V, Boxmeer, Netherlands), xylazine (Rompun® vet 20 mg/mL; Bayer Animal Health, Copenhagen, Denmark) and atropine (Atropin Mylan 0.5 mg/mL; Mylan AB, Stockholm, Sweden) by intramuscular injection before an auricular vein was cannulated. Anesthesia was induced with ketamine and midazolam (Midazolam Hameln 5 mg/mL, Hameln Pharmaceuticals, Hameln, Germany) and maintained with ketamine, midazolam, xylazine and fentanyl (Fentanyl 0.05 mg/mL, B. Braun Medical AB, Danderyd, Sweden). The animals were orotracheally intubated and ventilated with tidal volume 8–9 mL/kg, PEEP 8 cmH2O, and a respiratory rate set to achieve an end-tidal carbon dioxide of 5–5.5 kPa.
One animal served as a pharmacokinetic pilot, with arterial and venous catheters placed in a cut-down in the neck. The remaining 21 animals were used for the randomized study (Figure 1). After intubation and start of mechanical ventilation, a second auricular vein cannula was placed and infusion of either AEPU or placebo according to randomization was started. After 2 h of infusion of AEPU or placebo, an infusion of LPS was started. A bolus of 0.1 mg/kg was administered during 30 min after which the infusion rate was adjusted to 0.01 mg/kg/h. During the time between start of AEPU or placebo and LPS infusion, neck dissection was performed, exposing the v jugularis externa and carotid artery. A pulmonary artery introducer and an arterial cannula were placed in vein and artery respectively, and a pulmonary artery catheter introduced through the introducer and the tip placed in the correct position in the pulmonary artery placement guided by continuous invasive pressure monitoring or, when difficult, assisted by fluoroscopy. All surgical procedures were performed under sterile conditions.
AEPU was synthesized according to Kim et al. ([Kim et al., 2007]), delivered in 60 mg vials and dissolved in 30 mL pure ethanol as a co-solvent, of which either 20 mL was added to 980 mL of sodium chloride 9 mg/mL or 8 mL–392 mL sodium chloride, creating a solution of 0.04 mg/mL AEPU and 2% ethanol. The placebo infusion was prepared by adding either 20 mL of pure ethanol to 980 mL of sodium chloride 9 mg/mL or 8 mL of pure ethanol to 392 mL sodium chloride, creating a 2% ethanol solution. Each animal received an infusion of either 0.1 mg/kg/h AEPU or the corresponding volume of placebo solution.
A total of 200 mg of prefabricated lipopolysaccharides (LPS, Escherichia coli serotype 0,111:B4, Sigma-Aldrich (Product no L4130), St. Louis, MO, United States of America) was dissolved in 40 mL of sterile water, carefully mixed and filtered, creating a solution of 5 mg/mL. This preparation was stored frozen (−20 °C) in 1 mL partitions. For each animal, 2 mL of the thawed solution was mixed and diluted in 18 mL of sodium chloride, finally creating a 0.5 mg/mL LPS solution for infusion.
All animals were monitored with pulse oximetry, heart rate, ECG, systemic arterial blood pressure (ABP), pulmonary arterial pressure (PAP), central venous pressure (CVP) temperature, tidal volumes, respiratory rate and end tidal carbon dioxide. At baseline, and at 3 h, 6 h and at the end of the experiment, pulmonary capillary wedge pressure (PCWP) was measured together with arterial and venous blood gas analyses, as well as cardiac output calculations. […]

[1] = 3 h, individual animals, listed as sEH-i 950
[2] = 6 h, individual animals, listed as sEH-i 950
[3] = Lungmekanik, 3 h, individual animals, listed as sEH-i 950
[4] = Lungmekanik, 6 h, individual animals, listed as sEH-i 950
[5] = Lungmekanik, baseline, individual animals, listed as sEH-i 950
[6] = Lungmekanik, end, individual animals, listed as sEH-i 950
[7] = baseline, individual animals, listed as sEH-i 950
[8] = end, individual animals, listed as sEH-i 950
[9] = individual animals, 3 h, listed as sEH-i 950

Compound: CCOCCOCCOCCCCCNC(=O)NC12CC3CC(CC(C3)C1)C2 [Compound 950]
- AF 3 h [1]: 41 and 50 and 42 and 48 and 30 and 45 and 39 and 44 and 40
- FiO2 3 h [1]: 0.4 and 0.5
- PaO2 3 h [1]: 22.1 and 20.1 and 17 and 22.7 and 19.3 and 16.7 and 9 and 8.1 and 7.3 and 14.7
- AF 6 h [2]: 40 and 54 and 50 and 48 and 30 and 45 and 39 and 44
- FiO2 6 h [2]: 0.4 and 0.5 and 0.8 and 0.7 and 1
- PaO2 6 h [2]: 19.6 and 12.3 and 11.8 and 18.6 and 18.5 and 14.7 and 8.7 and 9.4 and 6.8 and 7.9
- lung injury development in LPS treated pigs (AEPU 0.1 mg/kg/h infusion vs placebo): did not attenuate
- Premature death (AEPU group, did not survive entire protocol): 40%
- Mortalitet: Aktivt avslut (Ja = actively terminated, Nej = died, individual animals, listed as sEH-i 950): Nej and Ja and Nej*
- PIP 3 h [3]: 31 cmH2O and 28 cmH2O and 32 cmH2O and 24 cmH2O and 26 cmH2O and 34 cmH2O and 39 cmH2O and 44 cmH2O and 36 cmH2O
- Pmedel 3 h [3]: 14 cmH2O and 15 cmH2O and 12 cmH2O and 13 cmH2O and 16 cmH2O and 17 cmH2O
- Pplat 3 h [3]: 26 cmH2O and 23 cmH2O and 22 cmH2O and 27 cmH2O and 28 cmH2O and 25 cmH2O and 34 cmH2O and 33 cmH2O
- PIP 6 h [4]: 32 cmH2O and 33 cmH2O and 28 cmH2O and 30 cmH2O and 22 cmH2O
- Pmedel 6 h [4]: 13 cmH2O and 15 cmH2O and 14 cmH2O and 12 cmH2O
- Pplat 6 h [4]: 27 cmH2O and 26 cmH2O and 23 cmH2O and 21 cmH2O and 18 cmH2O
- PIP baseline [5]: 25 cmH2O and 23 cmH2O and 19 cmH2O and 24 cmH2O and 26 cmH2O and 27 cmH2O
- Pmedel baseline [5]: 12 cmH2O and 15 cmH2O and 13 cmH2O and 11 cmH2O and 14 cmH2O
- Pplat baseline [5]: 19 cmH2O and 16 cmH2O and 18 cmH2O and 22 cmH2O and 17 cmH2O
- PIP end [6]: 30 cmH2O and 37 cmH2O and 29 cmH2O and 28 cmH2O and 46 cmH2O
- Pmedel end [6]: 13 cmH2O and 16 cmH2O and 14 cmH2O
- Pplat end [6]: 24 cmH2O and 29 cmH2O and 22 cmH2O and 28 cmH2O
- PaO2/FiO2 3h (P/F-kvot, 3 h, individual animals, listed as sEH-i 950): 55.25 and 40.2 and 42.5 and 56.75 and 48.25 and 41.75 and 22.5 and 16.2 and 18.25 and 36.75
- PaO2/FiO2 6h (P/F-kvot, 6 h, individual animals, listed as sEH-i 950): 49 and 24.6 and 23.6 and 46.5 and 46.25 and 36.75 and 10.87 and 13.43 and 6.8 and 19.75
- PaO2/FiO2 baseline (P/F-kvot, baseline, individual animals, listed as sEH-i 950): 73.75 and 71.5 and 73 and 67 and 72.75 and 65.25 and 70.5 and 72.25 and 61.75 and 74.75
- PaO2/FiO2 end (P/F-kvot, end, individual animals, listed as sEH-i 950): 49.75 and 16.75 and 24 and 48.75 and 30.5 and 4.4 and 8.7
- FiO2 baseline (baseline, individual animals): 0.4
- AF baseline [7]: 40 and 42 and 26 and 34 and 46
- PaO2 baseline [7]: 29.5 and 28.6 and 29.2 and 26.8 and 29.1 and 26.1 and 28.2 and 28.9 and 24.7 and 29.9
- Mortalitet: Dödsorsak (cause of death, individual animals, listed as sEH-i 950): Cirkulationssvikt; also recorded: Adrenalinet tog slut…; also recorded: *Tubbyte/Hypoxi; also recorded: Lungsvikt/Hypoxi
- P/F 3h - baseline (change of P/F from baseline to 3 h, individual animals, listed as sEH-i 950): -18.5 and -31.3 and -30.5 and -10.25 and -24.5 and -23.5 and -48 and -56.05 and -43.5 and -38
- P/F 6h - baseline (change of P/F from baseline to 6 h, individual animals, listed as sEH-i 950): -24.75 and -46.9 and -49.4 and -20.5 and -26.5 and -28.5 and -59.625 and -58.8214 and -54.95 and -55
- P/F 9h- baseline (change of P/F from baseline to 9 h (end), individual animals, listed as sEH-i 950): -24 and -54.75 and -49 and -18.25 and -34.75 and -66.1 and -63.55
- Mortalitet, kommentarer (comments on clinical course, individual animals, listed as sEH-i 950): Instabil. Död i högersvikt 16.20 trots adrenalin; also recorded: Tidig start adrenalininf pga lågt CO; also recorded: Mycket svårt septisk. Extrema doser adrenalin; also recorded: Mycket svårt septisk. Högersvikt; also recorded: Relativt stabil. Nästan frisk i slutet; also recorded: Försök till tubbyte -> hypoxi + död; also recorded: Standardupplägg. Ter sig septisk redan vid induktion; also recorded: Svårt septisk redan från första början. Instabil. Död i cirkulationssvikt något i förtid. Misslyckad deff; also recorded: Septisk. Kräver adrenalininf. Uttalad lungskada. Lågt CO på slutet. Högdos adrenalin. Svår hjärtsvikt; also recorded: Svår sepsis med ffa svår lungsvikt. Mors i hypoxi efter 6 h. Sista prov (6h) några minuter före död. PSVT upprepat med självterminerande vid LPS-bolus
- Fluid administration total (end of experiment, AEPU group): 5785 (5080–7210) mL
- Urine output (end of experiment, AEPU group): 700 (320–1200) mL
- AF end [8]: 40 and 54 and 50 and 48 and 45 and 39 and 44
- FiO2 end [8]: 0.4 and 0.8 and 0.5 and 1
- PaO2 end [8]: 19.9 and 13.4 and 12 and 19.5 and 12.2 and 4.4 and 8.7
- CO 3 h [9]: 3.2 L/min and 5.3 L/min and 3.6 L/min and 3.3 L/min and 5.7 L/min and 3.1 L/min and 4.2 L/min
- CVP 3 h [9]: 15 mmHg and 21 mmHg and 14 mmHg and 10 mmHg and 17 mmHg and 18 mmHg and 13 mmHg and 16 mmHg
- HR 3 h [9]: 141 and 137 and 175 and 135 and 140 and 119 and 162 and 144 and 164 and 114
- MAP 3 h [9]: 110 mmHg and 107 mmHg and 58 mmHg and 72 mmHg and 94 mmHg and 79 mmHg and 88 mmHg and 106 mmHg and 52 mmHg and 99 mmHg
- MPAP 3 h [9]: 65 mmHg and 39 mmHg and 41 mmHg and 43 mmHg and 46 mmHg and 47 mmHg and 54 mmHg and 51 mmHg and 55 mmHg
- PCWP 3 h [9]: 21 mmHg and 15 mmHg and 17 mmHg and 19 mmHg
- PaCO2 3 h [9]: 4.9 kPa and 5.9 kPa and 6.6 kPa and 5.6 kPa and 6.5 kPa and 5.2 kPa and 5.7 kPa and 6.9 kPa and 7.7 kPa and 5.8 kPa
